{"source": "patent US7718808B2", "about": "“Thiazole derivatives” (Kyowa Hakko Kirin Co., Ltd., priority 2003, dated 2010)"}
{"smiles": "COC1CCN(CC(=O)Nc2nc(-c3ccco3)c(C(=O)c3ccccn3)s2)CC1.Cl", "melting point": "220 to 232 °C (dec.)"}
{"smiles": "CCN(CC)C(=O)C1CCCN(CC(=O)Nc2nc(-c3ccco3)c(C(=O)c3ccccn3)s2)C1.Cl", "note": "(centres unmarked)", "melting point": "180 to 185 °C"}
{"smiles": "CN1CCN(CC(=O)Nc2nc(-c3ccco3)c(C(=O)c3ccccn3)s2)CC1=O.Cl", "melting point": "170 to 188 °C"}
{"smiles": "O=C(Nc1nc(-c2ccco2)c(-c2ccncc2)s1)c1ccc(F)cc1", "note": "[Compound 102, 4-Fluoro-N-[4-(2-furyl)-5-(4-pyridyl)thiazol-2-yl]benzamide]", "melting point": "270 to 300 °C (dec.)"}
{"smiles": "COc1ccc(C(=O)Nc2nc(-c3ccco3)c(-c3ccncc3)s2)cc1", "note": "[Compound 103, N-[4-(2-Furyl)-5-(4-pyridyl)thiazol-2-yl]-4-methoxybenzamide]", "melting point": "235 to 245 °C"}
{"smiles": "CC(C)(C)C(=O)Nc1nc(-c2ccco2)c(-c2ccncc2)s1", "note": "[Compound 104, N-[4-(2-Furyl)-5-(4-pyridyl)thiazol-2-yl]-2,2-dimethylpropanamide]", "melting point": "240 to 241 °C"}
{"smiles": "COc1cc(C(=O)Nc2nc(-c3ccco3)c(-c3ccncc3)s2)ccn1", "note": "[Compound 105, N-[4-(2-Furyl)-5-(4-pyridyl)thiazol-2-yl]-2-methoxypyridine-4-carboxamide]", "melting point": "285 to 288 °C"}
{"smiles": "O=C(Nc1nc(-c2ccco2)c(-c2ccncc2)s1)c1ccnc(Cn2ccnc2)c1", "note": "[Compound 108, N-[4-(2-Furyl)-5-(4-pyridyl)thiazol-2-yl]-2-(imidazol-1-ylmethyl)pyridine-4-carboxamide]", "melting point": "239 to 250 °C"}
{"smiles": "CN(C)CCN(C)Cc1cc(C(=O)Nc2nc(-c3ccco3)c(-c3ccncc3)s2)ccn1", "note": "[Compound 109, 2-{N-[2-(Dimethylamino)ethyl]-N-methylaminomethyl}-N-[4-(2-furyl)-5-(4-pyridyl)thiazol-2-yl]pyridine-4-carboxamide]", "melting point": "203 to 205 °C"}
{"smiles": "COCCN(C)Cc1cc(C(=O)Nc2nc(-c3ccco3)c(-c3ccncc3)s2)ccn1", "note": "[Compound 110, N-[4-(2-Furyl)-5-(4-pyridyl)thiazol-2-yl]-2-[N-(2-methoxyethyl)-N-methylaminomethyl]pyridine-4-carboxamide]", "melting point": "195 to 197 °C"}
{"smiles": "O=C(Nc1nc(-c2ccco2)c(-c2ccncc2)s1)c1ccnc(CN2CCC(O)CC2)c1", "note": "[Compound 111, N-[4-(2-Furyl)-5-(4-pyridyl)thiazol-2-yl]-2-(4-hydroxypiperidinomethyl)pyridine-4-carboxamide]", "melting point": "203 to 208 °C"}
{"smiles": "O=C(Nc1nc(-c2ccco2)c(-c2ccncc2)s1)c1cc[nH]c(=O)c1", "note": "[Compound 112, N-[4-(2-Furyl)-5-(4-pyridyl)thiazol-2-yl]-2-oxo-1,2-dihydropyridine-4-carboxamide]", "melting point": "277 to 281 °C"}
{"smiles": "O=C(Nc1nc(-c2ccco2)c(-c2ccncc2)s1)c1ccn(Cc2ccccc2)c(=O)c1", "note": "[Compound 113, 1-Benzyl-N-[4-(2-furyl)-5-(4-pyridyl)thiazol-2-yl]-2-oxo-1,2-dihydropyridine-4-carboxamide]", "melting point": "244 to 248 °C"}
{"smiles": "COc1ccc(-c2sc(NC(=O)c3ccccc3)nc2-c2ccco2)cc1", "note": "[Compound 119, N-[4-(2-Furyl)-5-(4-methoxyphenyl)thiazol-2-yl]benzamide]", "melting point": "90 to 98 °C"}
{"smiles": "Cn1ccc(-c2sc(NC(=O)c3ccncc3)nc2-c2ccco2)cc1=O", "note": "[Compound 123, N-[4-(2-Furyl)-5-(1-methyl-2-oxo-1,2-dihydropyridine-4-yl)thiazol-2-yl]pyridine-4-carboxamide]", "melting point": "280 to 282 °C"}
{"smiles": "CCn1ccc(-c2sc(NC(=O)c3ccncc3)nc2-c2ccco2)cc1=O", "note": "[Compound 124, N-[5-(1-Ethyl-2-oxo-1,2-dihydropyridin-4-yl)-4-(2-furyl)thiazol-2-yl]pyridine-4-carboxamide]", "melting point": "245 to 248 °C"}
{"smiles": "O=C(Nc1nc(-c2ccco2)c(-c2ccn(Cc3ccccc3)c(=O)c2)s1)c1ccncc1", "note": "[Compound 125, N-[5-(1-Benzyl-2-oxo-1,2-dihydropyridin-4-yl)-4-(2-furyl)thiazol-2-yl]pyridine-4-carboxamide]", "melting point": "137 to 140 °C"}
{"smiles": "Cn1cc(-c2sc(NC(=O)c3ccncc3)nc2-c2ccco2)ccc1=O", "note": "[Compound 126, N-[4-(2-Furyl)-5-(1-methyl-2-oxo-1,2-dihydropyridin-5-yl)thiazol-2-yl]pyridine-4-carboxamide]", "melting point": "294 to 295 °C"}
{"smiles": "CCn1cc(-c2sc(NC(=O)c3ccncc3)nc2-c2ccco2)ccc1=O", "note": "[Compound 127, N-[5-(1-Ethyl-2-oxo-1,2-dihydropyridin-5-yl)-4-(2-furyl)thiazol-2-yl]pyridine-4-carboxamide]", "melting point": "285 to 289 °C"}
{"smiles": "O=C(Nc1nc(-c2ccco2)c(-c2ccc(=O)n(Cc3ccccc3)c2)s1)c1ccncc1", "note": "[Compound 128, N-[5-(1-Benzyl-2-oxo-1,2-dihydropyridin-5-yl)-4-(2-furyl)thiazol-2-yl]pyridine-4-carboxamide]", "melting point": "215 to 218 °C"}
{"smiles": "CCn1c(-c2sc(NC(=O)c3ccncc3)nc2-c2ccco2)cccc1=O", "note": "[Compound 129, N-[5-(1-Ethyl-6-oxo-1,6-dihydropyridin-2-yl)-4-(2-furyl)thiazol-2-yl]pyridine-4-carboxamide]", "melting point": "> 300 °C"}
{"smiles": "CCn1nc(-c2sc(NC(=O)c3ccncc3)nc2-c2ccco2)ccc1=O", "note": "[Compound 130, N-[5-(1-Ethyl-6-oxo-1,6-dihydropyridazin-3-yl)-4-(2-furyl)thiazol-2-yl]pyridine-4-carboxamide]", "melting point": "235 to 239 °C"}
{"smiles": "CC(C)(O)C(=O)Nc1nc(-c2ccco2)c(C(=O)c2ccccc2)s1", "note": "[Compound 137, N-[5-Benzoyl-4-(2-furyl)thiazol-2-yl]-2-hydroxy-2-methylpropanamide]", "melting point": "153 to 154 °C"}
{"smiles": "O=C(c1ccccc1)c1sc(NC(=O)C2(O)CC2)nc1-c1ccco1", "note": "[Compound 138, N-[5-Benzoyl-4-(2-furyl)thiazol-2-yl]-1-hydroxycyclopropanecarboxamide]", "melting point": "202 to 205 °C"}
{"smiles": "CN(C)Cc1cc(C(=O)Nc2nc(-c3ccco3)c(C(=O)c3ccccc3)s2)ccn1", "note": "[Compound 141, N-[5-Benzoyl-4-(2-furyl)thiazol-2-yl]-2-(dimethylaminomethyl)pyridine-4-carboxamide]", "melting point": "205 to 209 °C"}
{"smiles": "O=C(Nc1nc(-c2ccco2)c(C(=O)c2ccccc2)s1)c1ccnc(CN2CCOCC2)c1", "note": "[Compound 144, N-[5-Benzoyl-4-(2-furyl)thiazol-2-yl]-2-(morpholinomethyl)pyridine-4-carboxamide]", "melting point": "212 to 213 °C"}
{"smiles": "COCCN(C)c1cc(C(=O)Nc2nc(-c3ccco3)c(C(=O)c3ccccc3)s2)ccn1", "note": "[Compound 145, N-[5-Benzoyl-4-(2-furyl)thiazol-2-yl]-2-[N-(2-methoxyethyl)-N-methylamino]pyridine-4-carboxamide]", "melting point": "145 to 147 °C"}
{"smiles": "O=C(Nc1nc(-c2ccco2)c(C(=O)c2ccccc2)s1)c1ccnc(N2CCCCC2)c1", "note": "[Compound 146, N-[5-Benzoyl-4-(2-furyl)thiazol-2-yl]-2-piperidinopyridine-4-carboxamide]", "melting point": "195 to 198 °C"}
{"smiles": "Cn1cc(C(=O)Nc2nc(-c3ccco3)c(C(=O)c3ccccc3)s2)ccc1=O", "note": "[Compound 150, N-[5-Benzoyl-4-(2-furyl)thiazol-2-yl]-1-methyl-2-oxo-1,2-dihydropyridine-5-carboxamide]", "melting point": "220 to 225 °C"}
{"smiles": "O=C(Nc1nc(-c2ccco2)c(C(=O)c2ccccc2)s1)c1ccc(=O)n(Cc2ccncc2)c1", "note": "[Compound 152, N-[5-Benzoyl-4-(2-furyl)thiazol-2-yl]-2-oxo-1-(pyridin-4-ylmethyl)-1,2-dihydropyridine-5-carboxamide]", "melting point": "270 to 275 °C"}
{"smiles": "O=C(Nc1nc(-c2ccco2)c(C(=O)c2ccccc2)s1)c1ccnnc1", "note": "[Compound 153, N-[5-Benzoyl-4-(2-furyl)thiazol-2-yl]pyridazine-4-carboxamide]", "melting point": "225 to 248 °C"}
{"smiles": "CC(=O)Nc1nc(-c2ccco2)c(C(=O)c2ccccn2)s1", "note": "[Compound 188, N-[4-(2-Furyl)-5-(pyridin-2-ylcarbonyl)thiazol-2-yl]acetamide]", "melting point": "216 to 217 °C"}
{"smiles": "CCCC(=O)Nc1nc(-c2ccco2)c(C(=O)c2ccccn2)s1", "note": "[Compound 189, N-[4-(2-Furyl)-5-(pyridin-2-ylcarbonyl)thiazol-2-yl]butanamide]", "melting point": "148 to 149 °C"}
{"smiles": "CC(C)(C)C(=O)Nc1nc(-c2ccco2)c(C(=O)c2ccccn2)s1", "note": "[Compound 190, N-[4-(2-Furyl)-5-(pyridin-2-ylcarbonyl)thiazol-2-yl]-2,2-dimethylpropanamide]", "melting point": "186 to 187 °C"}
{"smiles": "CC1(C(=O)Nc2nc(-c3ccco3)c(C(=O)c3ccccn3)s2)CC1", "note": "[Compound 192, N-[4-(2-Furyl)-5-(pyridin-2-ylcarbonyl)thiazol-2-yl]-1-methylcyclopropanecarboxamide]", "melting point": "195 to 196 °C"}
{"smiles": "O=C(c1ccccn1)c1sc(NC(=O)C2CCC2)nc1-c1ccco1", "note": "[Compound 193, N-[4-(2-Furyl)-5-(pyridin-2-ylcarbonyl)thiazol-2-yl]cyclobutanecarboxamide]", "melting point": "165 to 170 °C"}
{"smiles": "O=C(c1ccccn1)c1sc(NC(=O)C2CCOCC2)nc1-c1ccco1", "note": "[Compound 194, N-[4-(2-Furyl)-5-(pyridin-2-ylcarbonyl)thiazol-2-yl]tetrahydropyran-4-carboxamide]", "melting point": "234 to 235 °C"}
{"smiles": "O=C(c1ccccn1)c1sc(NC(=O)C2CCN(Cc3cccnc3)CC2)nc1-c1ccco1", "note": "[Compound 197, N-[4-(2-Furyl)-5-(pyridin-2-ylcarbonyl)thiazol-2-yl]-1-(pyridin-3-ylmethyl)piperidine-4-carboxamide]", "melting point": "208 to 209 °C"}
{"smiles": "O=C(c1ccccn1)c1sc(NC(=O)C2CCN(Cc3ccncc3)CC2)nc1-c1ccco1", "note": "[Compound 198, N-[4-(2-Furyl)-5-(pyridin-2-ylcarbonyl)thiazol-2-yl]-1-(pyridin-4-ylmethyl)piperidine-4-carboxamide]", "melting point": "240 to 241 °C"}
{"smiles": "O=C(Nc1nc(-c2ccco2)c(C(=O)c2ccccn2)s1)c1ccccc1", "note": "[Compound 199, N-[4-(2-Furyl)-5-(pyridin-2-ylcarbonyl)thiazol-2-yl]benzamide]", "melting point": "165 to 171 °C"}
{"smiles": "COc1ccccc1C(=O)Nc1nc(-c2ccco2)c(C(=O)c2ccccn2)s1", "note": "[Compound 200, N-[4-(2-Furyl)-5-(pyridin-2-ylcarbonyl)thiazol-2-yl]-2-methoxybenzamide]", "melting point": "205 to 208 °C"}
